Results from publication PMC2717892 (2009).

Test system: T5 (DNA, single strand) TTTTT
Experiment: direct excitation Eu
Conditions: 50 mM NaNO3; 20 mM HEPES pH 7.0; 25 µM complex; 5–50 µM nucleic acid

`NC(=O)CN1CCN(CC(N)=O)CCN(Cc2ccc(CN3CCN(CC(N)=O)CCN(CC(N)=O)CCN(CC(N)=O)CC3)cc2)CCN(CC(N)=O)CC1.O.O.O.O.[Eu+3].[Eu+3]` was tested, and the binding was “weak”.
